Assay results from patent US8137991B2, “Methods of reducing angiogenesis of age-related macular degeneration (AMD) or choroidal neovascularization by an anti-carboxyetheylpyrrole (CFP) antibody” (The Cleveland Clinic Foundation, priority 2006, dated 2012).

How the values were obtained:
[1] = tested on: chick chorioallantoic membrane (CAM); assay: Chick chorioallantoic membrane (CAM) angiogenesis assay; assay type: in vivo, chick (white Leghorn embryos); details: VEGF 20 ng, positive control, 48 hours
Experimental: Fertilized 3-day old white Leghorn eggs (CWRU, Squire valley farms) were cracked, and embryos with the yolk intact were placed in 100 mm×20 mm glass bottom Petri dishes. […] CAMs implanted with discs loaded with unmodified dipeptide, HSA, control buffer or with vascular endothelial growth factor (VEGF) were used as negative and positive controls respectively. After 48 hours of incubation, India ink was injected into the vascular system for better visualization of the vessels by a stereomicroscope. Images were captured with a Panasonic CCD camera. Samples were always compared on the same CAM to avoid egg-to-egg variability. For quantitative analysis of vessel density and leakage, CAM images were batch processed using customized macros generated in Image-Pro Plus 5.0 (Media Cybernetics, Silver Spring, Md.). Briefly, a region of interest (ROI) was traced around grafted tissue in each image, each image was then cropped to its ROI, converted to grayscale, and processed using a large spectral filter to enhance the appearance of vasculature whilst omitting presence of larger vessels (determined by filter width). […]
The protein preparations were analyzed for endotoxin and determined to be free of contamination.

[2] = tested on: rat cornea (limbal blood vessels); assay: Rat corneal micropocket assay, angiogenic response to implanted pellets; assay type: in vivo, Sprague-Dawley rats; details: pellet 1 mm from limbus, CEP-HSA 1 μg, CEP-dipeptide 37 ng, dipeptide 41 ng
Experimental: Hydron/sucralfate pellets containing unmodified or CEP modified HSA or dipeptide with or without neutralizing antibodies (monoclonal mouse anti-human VEGF, 1.5 μg, R&D systems (MAB293) or monoclonal anti-CEP antibody (Gu, X., et al. (2003) J. Biol. Chem.), 4 μg) were inserted into corneal micropockets (1 mm from the limbus) of Sprague-Dawley rats. Control mouse IgM, 4 μg (eBioscience, cat. #14-4752) and mouse IgG, 1.5 μg (Southern Biotechnology Inc., cat. #0104-01) antibodies were used in control pellets for comparison with anti-CEP and anti-VEGF antibodies respectively. Corneas were examined daily with the aid of a surgical microscope to monitor angiogenic responses to CEP modified peptide or proteins. […] A positive neovascularization response was recorded only if sustained directional in-growth of capillary sprouts and hairpin loops toward the pellet was observed. A negative response was recorded when either no growth is observed or only an occasional sprout or hairpin loop showing no evidence of sustained growth was detected. […] Angiogenic response was analyzed for peak vascular extension and total skeletal (vascular) length using Image-Pro Plus 5.0 (Media Cybernetics, Silver Spring, Md.). […] The resulting image, a single segmented object representing the overall dimensions of the vascular bed, was analyzed for maximum box-width, i.e. extent of vessel penetration. […]

Substance	average skeletal density of CAM vessels [1]	growth of limbal blood vessels towards the pellet [2]
VEGF	~3.1	–
acetyl-Gly-Lys-O-methyl ester [dipeptide]	–	did not induce this effect
